The text below walks through data of patent US3988476A, “Pharmaceutical compositions and methods of treating allergic conditions utilizing 2-nitroindane-1,3-dione derivatives as the active agent” (Beecham Group Limited, priority 1972, dated 1976).

The subject of this test is PCA response. The test is described as follows: Rat Passive Cutaneous Anaphylaxis (PCA) test, ovalbumin challenge. The class given is in vivo, Wistar rats. The following applies: for % Inhibition of PCA response: 34 mg/kg. On the procedure:
All of the 2-nitro indane-1,3-dione prepared in the preceding Examples were submitted for biological testing. The test system was the Rat Passive Cutaneous Anaphylaxis (PCA) test described below in (ii).
Male Wister rats of 250- 300 g, were injected intraperitoneally with 0.5 ml of Bordatella pertussis vaccine (containing 4× 10^10 dead organism per ml) and subcutaneously with 0.5 ml of an emulsion of 100 mg. of ovalbumin in 2 ml of saline and 3 ml of incomplete Freunds' adjuvant. Rats were bled by cardiac puncture on day 18, the blood was pooled and separated and serum stored at -20° and thawed only once before use.
0.1 ml of each of six twofold serial dilutions of the serum in 0.9% saline were injected intradermally into separate sites on the shaved dorsal surface of 250-350 g. Wistar rats. 72 hours later the animals were challenged by i.v. injection of 0.3 ml of 1% ovalbumin mixed with 0.1 ml of a 5% solution of pontamine sky blue dye both in isotonic saline buffered with pH. 7.2 Sorenson buffer (P.B.S.). The rats were killed after 20 minutes and the diameter of the blue wheals at the antibody injection sites were measured. The starting dilution of the serum was adjusted so that there was no response, after challenge, at the site of injection of the highest dilution and a maximum response at the lowest dilution.
Amounts of the compounds were administered to rats each amount to a test group of six animals at a specified time prior to intravenous challenge with ovalbumin.
For those compounds having insoluble sodium salts, the salts were isolated by reaction of the free nitro compound with 2.5N sodium hydroxide and the filtered sodium washed free of alkali with water. The dried salts were then administered as a suspension in 1% methyl cellulose.

[1] abbreviates: 25 mg/kg, 0 min between dosing and challenge, solution of Na salt.
Where [2] appears, read: 25 mg/kg, 60 min between dosing and challenge, solution of Na salt.
[3] abbreviates: 100 mg/kg, 0 min between dosing and challenge, solution of Na salt.
The mark [4] stands for this setting: 100 mg/kg, 60 min between dosing and challenge, solution of Na salt.
Setting [5] is: 25 mg/kg, 0 min between dosing and challenge, suspension of Na salt in 1% methyl cellulose.
Where [6] appears, read: 25 mg/kg, 60 min between dosing and challenge, suspension of Na salt in 1% methyl cellulose.
Where [7] appears, read: 100 mg/kg, 0 min between dosing and challenge, suspension of Na salt in 1% methyl cellulose.
Where [8] appears, read: 100 mg/kg, 60 min between dosing and challenge, suspension of Na salt in 1% methyl cellulose.
[9] abbreviates: 25 mg/kg, 30 min between dosing and challenge, solution of Na salt.
Where [10] appears, read: 100 mg/kg, 30 min between dosing and challenge, solution of Na salt.

In the case of `O=C1c2c(Cl)c(Cl)c(Cl)c(Cl)c2C(=O)C1[N+](=O)[O-]` [2-Nitro-4,5,6,7-tetrachloro indane-1,3-dione], the “% INHIBITION OF PCA RESPONSE” value is -13% under setting [1], 9% under setting [2], -3% under setting [3] and 7% under setting [4].

With `O=C1c2cccc(-c3ccccc3)c2C(=O)C1[N+](=O)[O-]` (stereo not shown) [2-nitro-4-phenyl indane 1,3 indione, 2-Nitro-4-Phenyl indane-1,3-dione], the “% INHIBITION OF PCA RESPONSE” value is, setting by setting: under setting [1], 12%; under setting [2], 22%; under setting [3], 8%; under setting [4], 24%.

`O=C1c2ccc(-c3ccccc3)cc2C(=O)C1[N+](=O)[O-]` (stereo not shown) [2-nitro-5-phenyl indane-1,3-dione, 2-Nitro-5-phenyl indane-1,3-dione]: the “% INHIBITION OF PCA RESPONSE” value is on record as 58% under setting [5], 56% under setting [6], 82% under setting [7] and 36% under setting [8].

Turning to `O=C1c2cc3ccccc3cc2C(=O)C1[N+](=O)[O-]` [2-nitro-benz[f] indane 1,3-dione, 2-Nitro benz[f] indane-1,3-dione], the “% INHIBITION OF PCA RESPONSE” value reads like this: under setting [5], 100%; under setting [6], 37%; under setting [7], 100%; under setting [8], 72%.

On to `O=C1c2ccc3ccccc3c2C(=O)C1[N+](=O)[O-]` (stereo not shown) [2-nitrobenz(e) indane-1,3-dione, 2-Nitro benz(e)indane-1,3-dione], for which the “% INHIBITION OF PCA RESPONSE” value runs as follows: under setting [5], 16%; under setting [6], 50%; under setting [7], 13%; under setting [8], 47%.

Take `O=C1c2ccc3c(c2C(=O)C1[N+](=O)[O-])CCCC3` (stereo not shown) [4,5-cyclohexano 2-nitroindane 1,3-dione, 4,5-Cyclohexano-2-nitroindane-1,3-dione]: the “% Inhibition of PCA response” value runs as follows: (0 min between dosing and challenge, suspension of Na salt in 1% methyl cellulose) 7%; (60 min between dosing and challenge, suspension of Na salt in 1% methyl cellulose) 32%.

For `O=C1c2ccc3c(c2C(=O)C1[N+](=O)[O-])CCC3` (stereo not shown) [4,5-cyclopentano 2-nitroindane 1,3-dione, 4,5-Cyclopentano-2-nitro indane-1,3-dione], the “% INHIBITION OF PCA RESPONSE” value is, setting by setting: under setting [5], 5%; under setting [6], 34%; under setting [7], 26%; under setting [8], 28%.

With `Cc1cc(C)c2c(c1)C(=O)C([N+](=O)[O-])C2=O` (stereo not shown) [4,6-dimethyl-2-nitroindane-1,3-dione, 4,6-Dimethyl-2-nitro-indane-1,3-dione], the “% INHIBITION OF PCA RESPONSE” value runs as follows: under setting [1], 58%; under setting [9], 27%.

As to `Cc1ccc(C)c2c1C(=O)C([N+](=O)[O-])C2=O` [4,7-dimethyl-2-nitroindane-1,3-dione, 4,7-Dimethyl-2-nitro-indane-1,3-dione], the “% INHIBITION OF PCA RESPONSE” value runs as follows: under setting [5], 35%; under setting [6], 16%; under setting [7], 46%; under setting [8], 8%.

Regarding `COc1cc(C)cc2c1C(=O)C([N+](=O)[O-])C2=O` (stereo not shown) [4-Methoxy-6-methyl-2-nitro indane-1,3-dione], the “% INHIBITION OF PCA RESPONSE” value is 34% under setting [1], 31% under setting [9], 80% under setting [3] and 24% under setting [10].

Consider `COc1ccc(C)c2c1C(=O)C([N+](=O)[O-])C2=O` (stereo not shown) [4-Methoxy-7-methyl-2-nitro indane1,3-dione], for which the “% INHIBITION OF PCA RESPONSE” value by setting is: under setting [1], 34%; under setting [9], 62%; under setting [3], 36%; under setting [10], 44%.
